Entries after “also recorded” stand apart in the source; their conditions may differ.
Columns and labels:
macrophages (CD11b+) = assay: Antigen-presenting cell recruitment in injected quadriceps muscle: macrophages (flow cytometry); format: in vivo, BALB/c mice; details: 50 μL i.m. into right quadriceps, versus vehicle-injected left quadriceps
Protocol: (§1) 15 BALB/c mice were randomly assigned into 5 groups (three mice per group), which were Paraffin oil@HACH group, Squalane@HACH group, Squalene@HACH group, Ocimene@HACH group, and Farnesene@HACH group.
(§2) 50 μL of the composition comprising Paraffin oil@HACH particles, composition comprising Squalane@HACH particles, composition comprising Squalene@HACH particles, composition comprising Ocimene@HACH particles, or composition comprising Farnesene@HACH particles (the test samples in this experiment) was injected intramuscularly into the right quadriceps of mice in the Paraffin oil@HACH group, Squalane@HACH group, Squalene@HACH group, Ocimene@HACH group, and Farnesene@HACH group, respectively; and 50 μL of sodium citrate buffer (pH=6.5) (the vehicle control in this experiment) was injected intramuscularly into the left quadriceps of mice in these groups to monitor the effect induced by the injection on each mouse.
(§3) The mice in each group were sacrificed at 5th day after injection.
(§4) The left quadriceps muscles and the right quadriceps muscles of each mouse were harvested respectively. The tendons were removed, and muscles were digested with 3 mL of phosphate buffered saline (PBS) containing 0.05% (w/v) type II collagenase, 10 μg/mL of DNase I, and 0.5% BSA at 37° C. for 40 min. The muscle digestion was quenched by the addition of excess medium; and then the cell suspension was collected by centrifugation at 1200 rpm for 5 min, resuspended in PBS, and filtered through a 70-μm nylon mesh (BD-Biosciences).
The degree of macrophage cell (CD11b^+) recruitment in each mouse was assessed according to the following formula (VII): […]
(§5) The experimental procedure was roughly the same as that described in Experiment 1-4. The only differences were the compositions administered to the mice.
(§6) Cholesterol group: 50 μL of the N-methyl-2-pyrrolidone (NMP) solution comprising cholesterol (0.25 mg/mL) (the test sample in this group) was injected intramuscularly into the right quadriceps of mice; and 50 μL of N-methyl-2-pyrrolidone solution (the vehicle control in this group) was injected intramuscularly into the left quadriceps of mice to monitor the effect induced by the injection on each mouse.
as §6, with “Squalene” for “Cholesterol”, “squalene (50 μL/mL)” for “cholesterol (0.25 mg/mL)”

dendritic cells (CD11c+) = assay: Antigen-presenting cell recruitment in injected quadriceps muscle: dendritic cells (flow cytometry); format: in vivo, BALB/c mice; details: 50 μL i.m. into right quadriceps, versus vehicle-injected left quadriceps
Protocol: as §1, §2, §3, §4
The degree of dendritic cell (CD11c^+) recruitment in each mouse was assessed according to the following formula (VI): […]
as §5, §6
as §6, with “Squalene” for “Cholesterol”, “squalene (50 μL/mL)” for “cholesterol (0.25 mg/mL)”

[1] = Condition suitable for self-assembly of Squalene@HACH particles (appearance of 28 compositions); format: physicochemical; details: by together forming squalene@HACH particles
Protocol: In this experiment, the condition suitable for self-assembly of Squalene@HACH particles was assessed and shown in a Ternary diagram.
There were 28 groups in this experiment, that is, the first to the 28th group. The preparation procedure of the compositions in each group was roughly the same as the experimental procedure of Composition comprising Squalene@HACH particles described in Experiment 1-1-4. The only differences were the weight of squalene, the weight of HACH, and the weight of sodium citrate solution (aqueous buffer solution).
Squalene@HACH particles in the compositions were detected and analyzed by dynamic light scattering, particle size analyzer, or transmission electron microscope. Moreover, please note that if the self-assembly of the Squalene@HACH particles occur in the composition, the composition would be a milk-like mixture solution (milk-like suspension).

CD8+ T cell = assay: T cell immunity: CD8+ T cells in splenocytes of immunized mice (flow cytometry); details: splenocytes on day 28; i.m. on day 0 and day 14
Protocol: (§7) 12 BALB/c mice were randomly assigned into 4 groups (three mice per group), which were PBS group, WT1 group, WT1+IFN-alpha-based adjuvant group, and WT1+Squalene@HACH group.
(§8) PBS group: 50 μL of the phosphate buffered saline was injected intramuscularly into both of the left and right quadriceps of mice on day 0 and day 14.
(§9) WT1 group: 50 μL of the sodium citrate solution comprising 25 μL of WT1 protein was injected intramuscularly into both of the left and right quadriceps of mice on day 0 and day 14. […]
(§10) The splenocytes were isolated by the following procedure: the spleen was gently pressed with the plunger seal of a 5-mL syringe on a 70-μm cell strainer into a 50-mL tube and washed through a cell strainer with RPMI 1640 containing 10% (v/v) FBS. […] The cell solution was counted and diluted to the desired cell concentrations.
(§11) The cell suspensions obtained from the spleen of mice in each group were respectively mixed with a medium containing titrated fluorescent conjugates of monoclonal antibodies CD8a-Alexa Fluor 647 (BD Pharmingen), and CD4-FITC (Thermo Fisher). […] Finally, the stained cells were washed with staining buffer and analyzed by BD Accuri™ C6 flow cytometer.

CD4+ T cell = assay: T cell immunity: CD4+ T cells in splenocytes of immunized mice (flow cytometry); details: splenocytes on day 28; i.m. on day 0 and day 14
Protocol: as §7, §8, §9, §10, §11

4T1 cells = assay: Anti-tumor activity in 4T1 breast cancer mouse model; format: in vivo, BALB/c mice; set-up: key to Survival Status on Day 53: Dead means that the mouse died because of the tumor; Dead * means that the mouse died from attack by other mice
Protocol: On Day 0, after the injection process as described above was completed, 0.05 mL of the phosphate buffered saline (PBS) comprising 4T1 cells (2×10^6 cells/mL; 4T1 cell is abreast cancer cell line) was injected subcutaneously into the abdominal mammary fat pad of the mice in each group, and the tumor volume and survival status of mice were initially monitored on this day (Day 0). Tumor volume was calculated by ½*(4*3.14/3)*(length/2)*(width/2)*height*1000, and the observation of the tumor volume and survival status was stopped if the mouse was defined as either death or paralysis or the tumor volume of the mouse exceeding 1000 mm^3.

[2] = individual mouse, i.m. on Day −14 and Day 0, 4T1 cells s.c. on Day 0

Compound | Macrophages (CD11b+) recruitment, in words (macrophages (CD11b+)) | Dendritic cells (CD11c+) recruitment, in words (dendritic cells (CD11c+)) | further results
CC(C)CCC[C@@H](C)[C@H]1CC[C@H]2[C@@H]3CC=C4C[C@@H](O)CC[C@]4(C)[C@H]3CC[C@]12C [cholesterol] | lack the ability to recruit | lack the ability to recruit | –
hyaluronic acid-cholesterol conjugate [HACH] | – | – | Weight units of squalene coated by 1 weight unit of HACH [1]: 80 weight units
CCCCCCCCCCCCCCCCCCN [ODA, octadecan-1-amine] | lack the ability to recruit | lack the ability to recruit | –
WT1: WT1 protein, targeted antigen, given alone in sodium citrate solution | lacks the ability to recruit | lacks the ability to recruit | CD8+ T cell (CD8+ T cell): 27.5%; CD4+ T cell (CD4+ T cell): 34.1%; Survival Status on Day 53 (4T1 cells; [2]): Dead; The day of the Tumor Growth (4T1 cells; [2]): Day 18; also recorded: Day 21; also recorded: Day 25; Mice died on Day 53 (4T1 cells; of 6 mice per group): 6 mice; Mice in which tumor developed (4T1 cells; of 6 mice per group): 6 mice; Tumor was initially developed between (4T1 cells; range over tumor-bearing mice of the group): 18 to 25 days
CC(C)=CCC/C(C)=C/CC/C(C)=C/CC/C=C(\C)CC/C=C(\C)CCC=C(C)C [squalene] | lack the ability to recruit | lack the ability to recruit | –

Source: patent US20260091103A1, “NOVEL COMPOSITIONS COMPRISING TERPENOID AND MACROMOLECULE, AND USES THEREOF” (Powin Biomedical Co., Ltd., priority 2022, published 2026)
